From the supplement of paper PMC11061612 come the findings set out here.

What all share (test): Bliss excess, mean over the matrix (fraction); higher = more synergy
Experiment [1] deals with B-CPAP (Thyroid Gland Carcinoma). The method in brief: (§1)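 Cell lines in DMEM/F12 or RPMI with 10% FBS were plated in 1536-well plates, held 24 hours at 37°C, 5% CO2, then given two-drug dose matrices for 72 hours (DMSO typically 0.2%). Viability was read by CellTiter-Glo 2.0 luminescence and scaled as inhibition from 0 (vehicle wells) to 1 (blank wells). Combination Emax is the second-highest inhibition in the matrix; Bliss excess is observed combination effect minus expected EA + EB − EA·EB, EA and EB being single-agent effects.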

The subject of experiment [2] is CAL-148 (Breast Carcinoma). The method in brief:
as §1

Experiment [3] has as its system CCRF-CEM (T-Lymphoblastic Leukemia). An outline of the steps:
as §1

For experiment [4], the system named is EC-GI-10 (Esophageal Squamous Cell Carcinoma). An outline of the steps:
as §1

The test system of experiment [5] is ES4 (Ewing's Sarcoma). An outline of the steps: as §1
Experiment [6] relates to HCC-78 (Lung Adenocarcinoma). An outline of the steps:
as §1

The subject of experiment [7] is HCC1806 (Breast Carcinoma). An outline of the steps:
as §1

Experiment [8] concerns HOS (Osteosarcoma). The method in brief:
as §1

The test system of experiment [9] is Hs-578-T (Breast Carcinoma). An outline of the steps: as §1
Experiment [10] has as its system KP-1N (Pancreatic Carcinoma). An outline of the steps: as §1
The subject of experiment [11] is KYSE-520 (Esophageal Squamous Cell Carcinoma). The method in brief:
as §1

Experiment [12] deals with LB831-BLC (Bladder Carcinoma). The method in brief:
as §1

Experiment [13] has as its system LU-135 (Small Cell Lung Carcinoma). The method in brief:
as §1

For experiment [14], the system named is MFE-296 (Endometrial Carcinoma). An outline of the steps:
as §1

The test system of experiment [15] is NCI-H82 (Small Cell Lung Carcinoma). An outline of the steps: as §1
Experiment [16] concerns OVCA420 (Ovarian Carcinoma). An outline of the steps: as §1
The subject of experiment [17] is RO82-W-1 (Thyroid Gland Carcinoma). The method in brief:
as §1

Experiment [18] has as its system SK-ES-1 (Ewing's Sarcoma). An outline of the steps: as §1
Experiment [19] relates to SNU-5 (Gastric Carcinoma). The method in brief: as §1
The subject of experiment [20] is T98G (Glioblastoma). An outline of the steps: as §1

The structures appear in SMILES notation.

On to `CC1(C)CCC(CN2CCN(c3ccc(C(=O)NS(=O)(=O)c4ccc(NCC5CCOCC5)c([N+](=O)[O-])c4)c(Oc4cnc5[nH]ccc5c4)c3)CC2)=C(c2ccc(Cl)cc2)C1` [Venetoclax] + COc1cc(Nc2ncc3c(n2)-c2ccc(Cl)cc2C(c2c(F)cccc2OC)=NC3)ccc1C(=O)O [Alisertib] (first compound max 1 µM, 7x7, partner max 10 µM), for which the Bliss excess in experiment [1] was -0.0128; in [2], -0.0175; in experiment [3], -0.0493; in [4], 0.0164; in [5], -0.0349; in experiment [6] it was 0.0127. In addition, the Bliss excess in [7] was 0.0042; in [8], -0.0132; in experiment [9], 0.107; in [10], 0.0194; in [11], -0.0489; in [12], -0.0354. Besides, the Bliss excess in experiment [13] is -0.0236; in [14] it was -0.0285; in experiment [15], 0.0328; in experiment [16] it was -0.025; in [17], -0.0658; in [18], 0.097. In addition, the Bliss excess is -0.0218 in experiment [19] and -0.0205 in experiment [20].
For `CC1(C)CCC(CN2CCN(c3ccc(C(=O)NS(=O)(=O)c4ccc(NCC5CCOCC5)c([N+](=O)[O-])c4)c(Oc4cnc5[nH]ccc5c4)c3)CC2)=C(c2ccc(Cl)cc2)C1` [Venetoclax] + C[C@@H]1COCCN1C2=NC(=NC(=C2)C3(CC3)[S@](=N)(=O)C)C4=C5C=CNC5=NC=C4 [AZD6738] (first compound max 1 µM, 7x7, partner max 10 µM), the Bliss excess in [1] is -0.0136; in [2] it was -0.0501; in experiment [3], 0.0224; in [4] it was 0.0294; in experiment [5], -0.0465; in experiment [6], -0.0195. The Bliss excess in experiment [7] is -0.0665; in [8], -0.0099; in experiment [9], -0.122; in [10], -0.0217; in [11], -0.0353; in experiment [12] it was 0.0045. Further, the Bliss excess is 0.0538 in experiment [13]; -0.0296 in experiment [14]; 0.0098 in experiment [15]; 0.0047 in experiment [16]; -0.0504 in [17]; 0.0104 in experiment [18]. Moreover, the Bliss excess is -0.0437 in experiment [19] and -0.061 in [20].
For `CC1(C)CCC(CN2CCN(c3ccc(C(=O)NS(=O)(=O)c4ccc(NCC5CCOCC5)c([N+](=O)[O-])c4)c(Oc4cnc5[nH]ccc5c4)c3)CC2)=C(c2ccc(Cl)cc2)C1` [Venetoclax] + C[C@@H](Nc1cc(F)cc(F)c1)c1cc(C(=O)N(C)C)cc2c(=O)cc(N3CCOCC3)oc12 [AZD8186] (first compound max 1 µM, 7x7, partner max 3 µM), the Bliss excess in experiment [1] was -0.0151; in experiment [2], 0.0101; in experiment [3], 0.012; in experiment [4], -0.0139; in [5] it was -0.0554; in [6], -0.0337. For the same compound, the Bliss excess in [7] is -0.0149; in experiment [8], -0.0262; in experiment [9], -0.0314; in experiment [10], 0.0036; in experiment [11], -0.06; in experiment [12], -0.0465. The Bliss excess is 0.121 in [13]; -0.0248 in [14]; -0.0452 in experiment [15]; -0.0285 in experiment [16]; -0.0455 in [17]; 0.0802 in [18]. Besides, the figures for the Bliss excess in experiment [19] and in experiment [20] were 0.0236 and -0.0064, respectively.
With `CC1(C)CCC(CN2CCN(c3ccc(C(=O)NS(=O)(=O)c4ccc(NCC5CCOCC5)c([N+](=O)[O-])c4)c(Oc4cnc5[nH]ccc5c4)c3)CC2)=C(c2ccc(Cl)cc2)C1` [Venetoclax] + Cc1cc2ncnn2cc1Nc1ncc2c(n1)n(C1CCOCC1)c(=O)n2C [AZD7648] (first compound max 1 µM, 7x7, partner max 10 µM), the Bliss excess in [1] is -0.0146; in experiment [2] it was -0.0143; in experiment [3] it was 0.044; in [4], 0.038; in [5], -0.0452; in experiment [6] it was -0.017. The Bliss excess was 0.0043 in experiment [7]; -0.0019 in experiment [8]; -0.0162 in [9]; -0.0217 in experiment [10]; -0.0284 in [11]; -0.0497 in experiment [12]. Moreover, the Bliss excess in experiment [13] is -0.087; in experiment [14], -0.0065; in experiment [15] it was -0.0227; in [16], -0.0089; in experiment [17], -0.0346; in experiment [18], 0.0203. The Bliss excess is -0.0063 in [19] and -0.0693 in experiment [20].
On to `CC1(C)CCC(CN2CCN(c3ccc(C(=O)NS(=O)(=O)c4ccc(NCC5CCOCC5)c([N+](=O)[O-])c4)c(Oc4cnc5[nH]ccc5c4)c3)CC2)=C(c2ccc(Cl)cc2)C1` [Venetoclax] + Cn1cnc2c(F)c(Nc3ccc(Br)cc3Cl)c(C(=O)NOCCO)cc21 [Selumetinib] (first compound max 1 µM, 7x7, partner max 3 µM), for which the Bliss excess in experiment [1] was -0.0446; in experiment [2] it was -0.0148; in experiment [3], 0.0079; in [4] it was -0.0293; in experiment [5] it was -0.0412; in experiment [6], -0.0329. Further, the Bliss excess in experiment [7] is -0.025; in experiment [8], -0.0282; in experiment [9] it was 0.0045; in experiment [10], -0.0176; in experiment [11], -0.0836; in experiment [12] it was -0.0239. Besides, the Bliss excess in experiment [13] is -0.0545; in experiment [14], -0.0297; in experiment [15], -0.0125; in [16] it was -0.045; in [17], -0.0552; in experiment [18], 0.0234. In addition, the Bliss excess in [19] is -0.0192; in experiment [20], -0.0186.
